From patent US5985874A, “Substituted morpholine derivative and its use as a therapeutic agent” (Merck Sharp & Dohme Ltd., priority 1998, dated 1999)

How the values were obtained:
NK1 receptor = NK1 receptor (Homo sapiens, UniProt P25103); assay: NK1 receptor test by the methods of WO 93/01165 (pages 36 to 39); type: binding; settings: test methods of WO 93/01165, pages 36 to 39
Procedure: The compound of this invention was tested by the methods set out at pages 36 to 39 of International Patent Specification No. WO 93/01165.

cisplatin-induced emesis = assay: ferret model of cisplatin-induced emesis (Tattersall et al, Eur. J. Pharmacol. 1993); type: in vivo

Sequence of NK1 receptor (P25103 whole entry): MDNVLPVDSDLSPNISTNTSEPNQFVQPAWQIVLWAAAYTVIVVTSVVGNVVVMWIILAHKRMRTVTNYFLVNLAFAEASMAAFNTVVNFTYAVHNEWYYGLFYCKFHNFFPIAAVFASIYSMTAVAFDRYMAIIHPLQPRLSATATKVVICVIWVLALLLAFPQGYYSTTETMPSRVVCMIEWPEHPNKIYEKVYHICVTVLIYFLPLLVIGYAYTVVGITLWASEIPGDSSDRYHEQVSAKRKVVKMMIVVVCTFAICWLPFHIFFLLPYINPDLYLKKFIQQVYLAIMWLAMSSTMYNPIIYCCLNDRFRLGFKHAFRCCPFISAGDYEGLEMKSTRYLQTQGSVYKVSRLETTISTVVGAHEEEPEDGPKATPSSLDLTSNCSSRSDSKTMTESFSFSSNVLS

- IC50 (NK1 receptor): < 1 nM
SMILES: Cn1cnc(CN2CCO[C@H](O[C@H](CO)c3cc(C(F)(F)F)cc(C(F)(F)F)c3)[C@@H]2c2ccc(F)cc2)n1 [Example 1, 2(R)-(1-(3,5-Bis(trifluoromethyl)phenyl)-2(S)-hydroxyethoxy)-3(S)-(4-fluorophenyl)-4-((1-methyl-1,2,4-triazol-3-yl)methylene)morpholine]
- retching and vomiting induced by cisplatin (cisplatin-induced emesis): attenuate the retching and vomiting induced by cisplatin
